Counter-ions that a name gives are not always drawn.

The experiment addresses T1, human chemokine receptor 2 isoform B (Homo sapiens, UniProt P41597).
T1 construct: host or cells: CHOK1-CCR2B-A5 (CHO-K1)
T1 sequence (P41597 1-360 isoform P41597-2): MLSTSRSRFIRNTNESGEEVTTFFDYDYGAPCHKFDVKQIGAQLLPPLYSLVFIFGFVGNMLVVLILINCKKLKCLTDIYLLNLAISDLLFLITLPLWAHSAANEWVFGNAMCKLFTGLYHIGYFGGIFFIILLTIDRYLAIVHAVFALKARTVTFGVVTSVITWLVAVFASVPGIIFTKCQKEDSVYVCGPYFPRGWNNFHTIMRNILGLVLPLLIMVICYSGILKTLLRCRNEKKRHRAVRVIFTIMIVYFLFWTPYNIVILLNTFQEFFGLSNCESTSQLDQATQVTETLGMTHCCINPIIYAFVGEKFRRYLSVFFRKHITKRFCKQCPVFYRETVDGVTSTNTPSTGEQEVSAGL
Kind of experiment: Calcium mobilization assay (FLIPR, CHOK1-CCR2B-A5 cells, 20 nM MCP-1). Format: cell-based. Conditions: Ca mobilisation assay, CCR2, antagonist activity vs 20 nM MCP-1. As to the method: CHOK1-CCR2B-A5 cells (from Euroscreen) stably overexpressing the human chemokine receptor 2 isoform B were cultured in Nutrient Hams F12 medium supplemented with 5% FBS, 100 U/ml penicillin, 100 μg/ml streptomycin, 400 μg/ml G418 and 5 μg/ml puromycin.
For the assay cells were grown overnight in 384-well black clear flat bottom polystyrene plates (Costar) at 37° C. at 5% CO2. After washing with DMEM, 20 mM Hepes, 2.5 mM probenecid, 0.1% BSA (DMEM assay buffer) cells were loaded with 4 μM Fluo-4 in the same DMEM assay buffer for 2 hours at 30° C. Excess dye was removed and cells were washed with DMEM assay buffer. 384-well compound plates were prepared with DMEM assay buffer/0.5% DMSO with or without various concentrations of test compounds. Usually compounds were tested for agonist and antagonist activity.
Test compounds were added to the assay plate and agonist activity was monitored as fluorescence for 80 seconds with a FLIPR (488 nm excitation; 510-570 nm emission; Molecular Devices). After 20-30 min. of incubation at 30° C., 20 nM MCP-1 (R&D; Roche) was added and fluorescence was monitored again for 80 seconds. Increases in intracellular calcium are reported as maximum fluorescence after agonist exposure minus basal fluorescence before exposure. Antagonist activity is indicated as inhibitor concentration required for 50% inhibition of specific calcium increases.
As for `COCCN(C)CCCN1CCN(C(=O)/C=C/c2ccc(Cl)c(Cl)c2)CCC1=O` [Example 41, 1-[(E)-3-(3,4-Dichloro-phenyl)-acryloyl]-4-{3-[(2-methoxy-ethyl)-methyl-amino]-propyl}-[1,4]diazepan-5-one], the IC50 (as a rule, the midpoint of a concentration-inhibition curve) turned out to be 1180 nM. The result for `C[N+]1(CCCN2CCN(C(=O)/C=C/c3ccc(Cl)c(Cl)c3)CCC2=O)CCC2(CC1)NC(=O)NC2=O` (centres unmarked) [Example 153, 8-(3-{4-[(E)-3-(3,4-Dichloro-phenyl)-acryloyl]-7-oxo-[1,4]diazepan-1-yl}-propyl)-8-methyl-2,4-dioxo-1,3-diaza-8-azonia-spiro[4.5]decane iodide] reads 446 nM; that for `O=C(/C=C/c1ccc(Cl)c(Cl)c1)N1CCC(=O)N(CCCN2CCC(F)CC2)CC1` [Example 74, 1-[(E)-3-(3,4-Dichloro-phenyl)-acryloyl]-4-[3-(4-fluoro-piperidin-1-yl)-propyl]-[1,4]diazepan-5-one], 175 nM; that for `O=C(/C=C/c1ccc(F)c(F)c1)N1CCC(=O)N(CCCN2CCCCC2)CC1` [Example 7, 1-[(E)-3-(3,4-Difluoro-phenyl)-acryloyl]-4-(3-piperidin-1-yl-propyl)-[1,4]diazepan-5-one], 1290 nM. As to `O=C(/C=C/c1cccc(Cl)c1)N1CCC(=O)N(CCN2CCCC2)CC1` [Example 1, 1-[(E)-3-(3-Chloro-phenyl)-acryloyl]-4-(2-pyrrolidin-1-yl-ethyl)-[1,4]diazepan-5-one], the IC50 came out at 681 nM. The result for `O=C(/C=C/c1ccc(Cl)c(Cl)c1)N1CCC(=O)N(CCCCN2CC[C@@H](O)[C@H](O)C2)CC1` (racemic) [Example 164, 1-[(E)-3-(3,4-Dichloro-phenyl)-acryloyl]-4-[4-((3RS,4RS)-3,4-dihydroxy-piperidin-1-yl)-butyl]-[1,4]diazepan-5-one hydrochloride] reads 544 nM. As for `CCN(CC)C1CCN(CCN2CCN(C(=O)/C=C/c3ccc(Cl)c(Cl)c3)CCC2=O)C1` (racemic) [Example 347], the IC50 was 864 nM.

For the molecule `O=C(/C=C/c1ccc(Cl)c(Cl)c1)N1CCC(=O)N(CCCN2CCC(CO)CC2)CC1` [Example 229], the IC50 was 154 nM. The figure for `O=C(/C=C/c1ccc(Cl)c(Cl)c1)N1CCC(=O)N(CCCCN2CC(O)CCC2CO)CC1` (racemic) [Example 476] is 18 nM. Take `O=C(/C=C/c1ccc(Cl)c(Cl)c1)N1CCC(=O)N(CC(O)CN2CC[C@H](O)[C@H](F)C2)CC1` (relative stereo) [Example 287]: the IC50 amounted to 848 nM.

Turning to `CC1(CO)CCCCN1CCCCN1CCN(C(=O)/C=C/c2ccc(Cl)c(Cl)c2)CCC1=O` (racemic) [Example 447], the IC50 worked out at 92 nM. On to `O=C(/C=C/c1ccc(Cl)c(Cl)c1)N1CCC(=O)N(CCCN2CCC(c3ccccc3)CC2)CC1` [Example 45, 1-[(E)-3-(3,4-Dichloro-phenyl)-acryloyl]-4-[3-(4-phenyl-piperidin-1-yl)-propyl]-[1,4]diazepan-5-one], for which the IC50 came out at 13 nM. Turning to `O=C(/C=C/c1ccc(F)c(Cl)c1)N1CCC(=O)N(CCCN2CCC[C@@H](O)C2)CC1` [Example 193], the IC50 is 644 nM. The result for “4-[3-(4-Methyl-4-hydroxy-piperidin-1-yl)-propyl]-1-[(E)-3-(3,4-dichloro-phenyl)-acryloyl]-[1,4]diazepan-5-one [Example 76]” reads 219 nM; that for `O=C(/C=C/c1ccc(F)c(Cl)c1)N1CCC(=O)N(C[C@@H](O)CN2CCC3(CC3)C(O)C2)CC1` (stereo partly drawn) [Example 342, 1-[(E)-3-(3-Chloro-4-fluoro-phenyl)-acryloyl]-4-[(S)-2-hydroxy-3-((+)-4-hydroxy-6-aza-spiro[2.5]oct-6-yl)-propyl]-[1,4]diazepan-5-one], 3 nM. Turning to `CC1(C)CCN(C[C@H](O)CCN2CCN(C(=O)/C=C/c3ccc(F)c(Cl)c3)CCC2=O)CC1O` (some centres unmarked) [Example 500], the IC50 amounted to 451 nM. The result for `O=C(/C=C/c1cnc(Cl)c(Cl)c1)N1CCC(=O)N(CCCN2CCC3(CC3)C(O)C2)CC1` (stereo not drawn) [Example 497, 1-[(E)-3-(5,6-Dichloro-pyridin-3-yl)-acryloyl]-4-[3-((-)-4-hydroxy-6-aza-spiro[2.5]oct-6-yl)-propyl]-[1,4]diazepan-5-one] reads 26 nM. For `CC1(O)CCCN(CCCN2CCN(C(=O)/C=C/c3ccc(F)c(Cl)c3)CCC2=O)C1` (racemic) [Example 205], the IC50 is 325 nM.

Regarding `CC1CCCCC1NCCN1CCN(C(=O)C=Cc2ccc(Cl)c(Cl)c2)CCC1=O` (mixture of isomers) [Example 104, cis/trans-1-[(E)-3-(3,4-Dichloro-phenyl)-acryloyl]-4-[3-(2-methyl-cyclohexylamino)-ethyl]-[1,4]diazepan-5-one], the IC50 came to 598 nM. The result for `CN(CCCN1CCN(C(=O)/C=C/c2ccc(Cl)c(Cl)c2)CCC1=O)C1CCOCC1` [Example 78, 1-[(E)-3-(3,4-Dichloro-phenyl)-acryloyl]-4-{3-[methyl-(tetrahydro-pyran-4-yl)-amino]-propyl}-[1,4]diazepan-5-one] reads 444 nM; that for `O=C(/C=C/c1ccc(Cl)c(Cl)c1)N1CCC(=O)N(CCCN2CCC(O)C3(CC3)C2)CC1` (racemic) [Example 252], 120 nM; that for “1-[(E)-3-(3,4-Dichloro-phenyl)-acryloyl]-4-[3-(4-methyl-piperazin-1-yl)-propyl]-[1,4]diazepan-5-one [Example 75]”, 267 nM.

As to `CC1C(O)CCCN1CCCN1CCN(C(=O)C=Cc2ccc(Cl)c(Cl)c2)CCC1=O` (mixture of isomers) [Example 225, (rac,trans)-1-[(E)-3-(3,4-Dichlorophenyl)-acryloyl]-4-[3-(3-hydroxy-2-methyl-piperidin-1-yl)-propyl]-[1,4]diazepan-5-one], the IC50 stood at 243 nM. In the case of `O=C(/C=C/c1ccc(Cl)c(Cl)c1)N1CCC(=O)N(CC(O)CN2CCCC(CO)C2)CC1` (racemic) [Example 289], the IC50 is 296 nM. Take `COC[C@H]1CCN(CCCCN2CCN(C(=O)/C=C/c3ccc(Cl)c(Cl)c3)CCC2=O)C[C@H]1O` (racemic) [Example 469]: the IC50 worked out at 61 nM.

For `N#CC1(c2ccccc2)CCN(CCN2CCN(C(=O)/C=C/c3ccc(Cl)c(Cl)c3)CCC2=O)CC1` [Example 101, 1-(-3-{4-[(E)-3-(3,4-Dichloro-phenyl)-acryloyl]-7-oxo-[1,4]diazepan-1-yl}-ethyl)-4-phenyl-piperidine-4-carbonitrile], the IC50 is 1230 nM. For `O=C(/C=C/c1ccc(Cl)c(Cl)c1)N1CCC(=O)N(CCCN2CCC(C(F)(F)F)CC2)CC1` [Example 72, 1-[(E)-3-(3,4-Dichloro-phenyl)-acryloyl]-4-[3-(4-trifluoromethyl-piperidin-1-yl)-propyl]-[1,4]diazepan-5-one], the IC50 was 312 nM. As to `O=C(/C=C/c1ccc(Cl)c(Cl)c1)N1CCC(=O)N(CCCN2CCC[C@H](O)C2)CC1` [Example 92, (S)-1-[(E)-3-(3,4-Dichloro-phenyl)-acryloyl]-4-[3-(3-hydroxy-piperidin-1-yl)-propyl]-[1,4]diazepan-5-one], the IC50 was found to be 189 nM.

On to `O=C(/C=C/c1ccc(F)c(Cl)c1)N1CCC(=O)N(CCCCN2CCCC(O)C2)CC1` (racemic) [Example 383], for which the IC50 is 198 nM. Turning to `CC(C)N1CCN(CCCN2CCN(C(=O)/C=C/c3ccc(Cl)c(Cl)c3)CCC2=O)CC1C` (racemic) [Example 246, (rac)-1-[(E)-3-(3,4-Dichloro-phenyl)-acryloyl]-4-[3-(4-isopropyl-3-methyl-piperazin-1-yl)-propyl]-[1,4]diazepan-5-one], the IC50 worked out at 421 nM. Consider `O=C(/C=C/c1ccc(Cl)c(Cl)c1)N1CCC(=O)N(C(CO)CCCN2CCCCC2)CC1` (racemic) [Example 181, (rac)-1-[(E)-3-(3,4-Dichloro-phenyl)-acryloyl]-4-(1-hydroxymethyl-4-piperidin-1-yl-butyl)-[1,4]diazepan-5-one], for which the IC50 was found to be 3 nM. Consider `C[C@H]1CCN(CCCN2CCN(C(=O)/C=C/c3ccc(F)c(Cl)c3)CCC2=O)C[C@H]1O` [Example 190, 1-[(E)-3-(3-Chloro-4-fluoro-phenyl)-acryloyl]-4-[3-((+, cis)-3-hydroxy-4-methyl-piperidin-1-yl)-propyl]-[1,4]diazepan-5-one], for which the IC50 amounted to 118 nM. For `O=C(/C=C/c1ccc(Cl)c(Cl)c1)N1CCC(=O)N(CCNC2CCCC2)CC1` [Example 108, 4-[3-(Cyclopentyl-amino)-ethyl]-1-[(E)-3-(3,4-dichloro-phenyl)-acryloyl]-[1,4]diazepan-5-one], the IC50 worked out at 1200 nM. Consider `O=C(/C=C/c1ccc(F)c(Cl)c1)N1CCC(=O)N(CCCCN2CCCCC2CO)CC1` (racemic) [Example 387], for which the IC50 amounted to 584 nM. Take `O=C(/C=C/c1ccc(Cl)c(Cl)c1)N1CCC(=O)N(CCCCN2CCC(O)C3(CC3)C2)CC1` (racemic) [Example 457]: the IC50 was found to be 283 nM.

The values are drawn from US7632829B2, “Diazepan derivatives” (Hoffmann-La Roche Inc., priority 2006, dated 2009).
